Measurements from ChEMBL document CHEMBL4680170, “Anticancer activity of 4'-phenyl-2,2':6',2″-terpyridines - behind the metal complexation” (Eur J Med Chem, 2020).
Each block holds one compound with its values, some of them ahead of it. Active and inactive are the calls of the source. No cut-off for these calls is given here.

How the values were obtained:
[1] = tested on: MCF7; experiment: Antiproliferative activity against human MCF-7 cells assessed as reduction in cell viability measured after 72 hrs in presence of FeSO4 by MTS assay; format: functional, cell-based; details: MCF7, 72 h
[2] = tested on: MCF7; experiment: Induction of apoptosis in human MCF-7 cells assessed as proportion of viable cells at 2.5 uM incubated for 48 hrs by Annexin V Muse cell analyzer based flow cytometry (reference value: 94.2%); format: functional
[3] = tested on: MCF7; experiment: Induction of apoptosis in human MCF-7 cells assessed as proportion of early apoptotic cells at 2.5 uM incubated for 48 hrs by Annexin V Muse cell analyzer based flow cytometry (reference value: 3.05%); format: functional
[4] = tested on: MCF7; experiment: Induction of apoptosis in human MCF-7 cells assessed as proportion of late apoptotic cells at 5 uM incubated for 48 hrs by Annexin V Muse cell analyzer based flow cytometry (reference value: 2.3%); format: functional
[5] = tested on: MCF7; experiment: Antiproliferative activity against human MCF-7 cells assessed as reduction in cell viability at 0.1 uM measured after 72 hrs in presence of FeSO4 by MTS assay; format: functional, cell-based
[6] = tested on: MCF7; experiment: Induction of apoptosis in human MCF-7 cells assessed as proportion of necrotic cells at 2.5 uM incubated for 48 hrs by Annexin V Muse cell analyzer based flow cytometry (reference value: 0.45%); format: functional
[7] = tested on: MCF7; experiment: Antiproliferative activity against human MCF-7 cells assessed as reduction in cell viability at 0.1 uM measured after 72 hrs in presence of CdSO4 by MTS assay; format: functional, cell-based
[8] = tested on: NHDF; experiment: Cytotoxicity against human NHDF cells assessed as reduction in cell viability measured after 72 hrs by MTS assay; format: cell-based
[9] = tested on: MCF7; experiment: Induction of apoptosis in human MCF-7 cells assessed as proportion of viable cells at 1 uM incubated for 48 hrs by Annexin V Muse cell analyzer based flow cytometry (reference value: 94.2%); format: functional
[10] = tested on: MCF7; experiment: Induction of ROS generation in human MCF7 cells at 1 uM measured after 24 hrs by CellRox Green reagent/Hoechst 33342 staining based fluorescence analysis relative to control; format: functional
[11] = tested on: HCT-116; experiment: Antiproliferative activity against human HCT 116 cells assessed as reduction in cell viability measured after 72 hrs by MTS assay; format: functional, cell-based; details: HCT-116, 72 h
[12] = tested on: MCF7; experiment: Induction of apoptosis in human MCF-7 cells assessed as proportion of viable cells at 5 uM incubated for 48 hrs by Annexin V Muse cell analyzer based flow cytometry (reference value: 94.2%); format: functional
[13] = tested on: MCF7; experiment: Induction of cell cycle arrest in human MCF-7 cells assessed as increase in cell accumulation at G0/G1 phase incubated for 24 hrs by Muse cell analyzer based flow cytometry; format: functional; details: dose 1-5 µM
[14] = tested on: MCF7; experiment: Induction of apoptosis in human MCF-7 cells assessed as proportion of late apoptotic cells at 1 uM incubated for 48 hrs by Annexin V Muse cell analyzer based flow cytometry (reference value: 2.3%); format: functional
[15] = tested on: MCF7; experiment: Induction of apoptosis in human MCF7 cells assessed as late apoptotic cells by measuring condensed and fragmented nuclei formation at 5 uM incubated for 24 hrs by AO/EB staining based fluorescence microscopy; format: functional, cell-based
[16] = tested on: MCF7; experiment: Antiproliferative activity against human MCF-7 cells assessed as reduction in cell viability measured after 72 hrs in presence of ZnCl2 by MTS assay; format: functional, cell-based; details: MCF7, 72 h
[17] = tested on: MCF7; experiment: Induction of apoptosis in human MCF-7 cells assessed as proportion of late apoptotic cells at 2.5 uM incubated for 48 hrs by Annexin V Muse cell analyzer based flow cytometry (reference value: 2.3%); format: functional
[18] = tested on: MCF7; experiment: Potency index, ratio of doxorubicin IC50 to test compound IC50 for anticancer activity against human MCF7 cells measured after 72 hrs by MTS assay; format: functional
[19] = tested on: Calf thymus DNA; experiment: Binding affinity to calf thymus DNA assessed as DNA intercalation by measuring bathochromic shift incubated for 1.5 hrs by spectrophotometric analysis; format: tissue-based; details: Bos taurus
[20] = tested on: MCF7; experiment: Induction of cell cycle arrest in human MCF-7 cells assessed as accumulation at G2/M phase at 1 uM incubated for 24 hrs by Muse cell analyzer based flow cytometry (reference value: 36.9%); format: functional
[21] = tested on: MCF7; experiment: Induction of apoptosis in human MCF-7 cells assessed as proportion of early apoptotic cells at 5 uM incubated for 48 hrs by Annexin V Muse cell analyzer based flow cytometry (reference value: 3.05%); format: functional
[22] = tested on: MCF7; experiment: Antiproliferative activity against human MCF-7 cells assessed as reduction in cell viability measured after 72 hrs in presence of FeCl3 by MTS assay; format: functional, cell-based; details: MCF7, 72 h
[23] = tested on: MCF7; experiment: Induction of apoptosis in human MCF7 cells assessed as p53 activation at 2.5 uM incubated for 24 hrs by immunoblot analysis; format: functional, cell-based
[24] = tested on: MCF7; experiment: Induction of cell cycle arrest in human MCF-7 cells assessed as accumulation at G2/M phase at 2.5 uM incubated for 24 hrs by Muse cell analyzer based flow cytometry (reference value: 36.9%); format: functional
[25] = tested on: MCF7; experiment: Induction of cell cycle arrest in human MCF-7 cells assessed as accumulation at G0/G1 phase at 5 uM incubated for 24 hrs by Muse cell analyzer based flow cytometry (reference value: 47.4%); format: functional
[26] = tested on: MCF7; experiment: Antiproliferative activity against human MCF-7 cells assessed as reduction in cell viability at 0.1 uM measured after 72 hrs in presence of FeCl3 by MTS assay; format: functional, cell-based
[27] = Drug uptake in human MCF7 cells mitochondria at 25 uM incubated for 2 hrs by MitoTracker Orange/LysoTracker staining based fluorescence microscopy; format: ADME; details: mcf7, 2 h
[28] = tested on: DNA; experiment: Induction of Escherichia coli supercoiled pUC19 plasmid DNA cleavage assessed as open circular form formation at 50 uM incubated for 60 mins by agarose gel electrophoresis analysis; format: nucleic-acid assay
[29] = tested on: U-251; experiment: Antiproliferative activity against human U251 cells assessed as reduction in cell viability measured after 72 hrs by MTS assay; format: functional, cell-based; details: U-251, 72 h
[30] = tested on: MCF7; experiment: Induction of cell cycle arrest in human MCF-7 cells assessed as accumulation at G0/G1 phase at 1 uM incubated for 24 hrs by Muse cell analyzer based flow cytometry (reference value: 47.4%); format: functional
[31] = tested on: MCF7; experiment: Induction of apoptosis in human MCF7 cells assessed as early apoptotic cells by measuring chromatin condensation and nuclear fragmentation at 5 uM incubated for 24 hrs by AO/EB staining based fluorescence microscopy; format: functional, cell-based
[32] = tested on: MCF7; experiment: Induction of cell cycle arrest in human MCF-7 cells assessed as accumulation at G2/M phase at 5 uM incubated for 24 hrs by Muse cell analyzer based flow cytometry (reference value: 36.9%); format: functional
[33] = tested on: MCF7; experiment: Antiproliferative activity against human MCF-7 cells assessed as reduction in cell viability at 0.1 uM measured after 72 hrs in presence of ZnCl2 by MTS assay; format: functional, cell-based
[34] = tested on: MCF7; experiment: Induction of cell cycle arrest in human MCF-7 cells assessed as accumulation at S phase at 2.5 uM incubated for 24 hrs by Muse cell analyzer based flow cytometry (reference value: 11.1%); format: functional
[35] = tested on: MCF7; experiment: Induction of cell cycle arrest in human MCF-7 cells assessed as accumulation at S phase at 1 uM incubated for 24 hrs by Muse cell analyzer based flow cytometry (reference value: 11.1%); format: functional
[36] = tested on: MCF7; experiment: Induction of apoptosis in human MCF7 cells assessed as decrease in p21 expression at 2.5 uM incubated for 24 hrs by immunoblot analysis; format: functional, cell-based
[37] = tested on: PANC-1; experiment: Antiproliferative activity against human PANC-1 cells assessed as reduction in cell viability measured after 72 hrs by MTS assay; format: functional, cell-based; details: PANC-1, 72 h
[38] = tested on: MCF7; experiment: Induction of apoptosis in human MCF-7 cells incubated for 48 hrs by Annexin V Muse cell analyzer based flow cytometry; format: functional; details: dose 1-5 µM
[39] = tested on: MCF7; experiment: Antiproliferative activity against human MCF-7 cells assessed as reduction in cell viability at 0.1 uM measured after 72 hrs in presence of CuSO4 by MTS assay; format: functional, cell-based
[40] = tested on: MCF7; experiment: Antiproliferative activity against human MCF-7 cells assessed as reduction in cell viability measured after 72 hrs by MTS assay; format: functional, cell-based; details: MCF7, 72 h
[41] = tested on: MCF7; experiment: Induction of ROS generation in human MCF7 cells at 1 uM measured after 1 hr by CellRox Green reagent/Hoechst 33342 staining based fluorescence analysis; format: functional, cell-based
[42] = tested on: MCF7; experiment: Induction of apoptosis in human MCF-7 cells assessed as proportion of early apoptotic cells at 1 uM incubated for 48 hrs by Annexin V Muse cell analyzer based flow cytometry (reference value: 3.05%); format: functional
[43] = tested on: MCF7; experiment: Induction of cell cycle arrest in human MCF-7 cells assessed as accumulation at G0/G1 phase at 2.5 uM incubated for 24 hrs by Muse cell analyzer based flow cytometry (reference value: 47.4%); format: functional
[44] = tested on: Calf thymus DNA; experiment: Binding affinity to calf thymus DNA assessed as DNA intercalation by measuring hypochromic shift incubated for 1.5 hrs by spectrophotometric analysis; format: tissue-based; details: Bos taurus
[45] = tested on: MCF7; experiment: Antiproliferative activity against human MCF-7 cells assessed as reduction in cell viability measured after 72 hrs in presence of CuSO4 by MTS assay; format: functional, cell-based; details: MCF7, 72 h
[46] = tested on: MCF7; experiment: Induction of apoptosis in human MCF7 cells assessed as cytochrome c release into cytosol at 2.5 uM incubated for 24 hrs by immunoblot analysis; format: functional, cell-based
[47] = tested on: DNA; experiment: Induction of Escherichia coli supercoiled pUC19 plasmid DNA cleavage assessed as linear form formation at 50 uM incubated for 60 mins by agarose gel electrophoresis analysis; format: nucleic-acid assay
[48] = tested on: MCF7; experiment: Induction of apoptosis in human MCF-7 cells assessed as proportion of necrotic cells at 5 uM incubated for 48 hrs by Annexin V Muse cell analyzer based flow cytometry (reference value: 0.45%); format: functional
[49] = tested on: MCF7; experiment: Antiproliferative activity against human MCF-7 cells assessed as reduction in cell viability measured after 72 hrs in presence of CdSO4 by MTS assay; format: functional, cell-based; details: MCF7, 72 h
[50] = tested on: MCF7; experiment: Induction of cell cycle arrest in human MCF-7 cells assessed as accumulation at S phase at 5 uM incubated for 24 hrs by Muse cell analyzer based flow cytometry (reference value: 11.1%); format: functional
[51] = tested on: MCF7; experiment: Potency index, ratio of oxaliplatin IC50 to test compound IC50 for anticancer activity against human MCF7 cells measured after 72 hrs by MTS assay; format: functional
[52] = tested on: MCF7; experiment: Induction of apoptosis in human MCF-7 cells assessed as proportion of necrotic cells at 1 uM incubated for 48 hrs by Annexin V Muse cell analyzer based flow cytometry (reference value: 0.45%); format: functional
[53] = tested on: MCF7; experiment: Induction of apoptosis in human MCF7 cells assessed as increase in AIP protein expression at 2.5 uM incubated for 24 hrs by immunoblot analysis; format: functional, cell-based
[54] = tested on: A549; experiment: Antiproliferative activity against human A549 cells assessed as reduction in cell viability measured after 72 hrs by MTS assay; format: functional, cell-based; details: A549, 72 h

IC50 [1]: 1000 nM
IC50 [11]: 270 nM
IC50 [16]: 1000 nM
IC50 [22]: 1000 nM
Drug uptake [27]: Active
Activity [28]: Active
IC50 [29]: 140 nM
IC50 ([37]; read-out: IC50): 440 nM
IC50 [40]: 40 nM
IC50 [45]: 39 nM
Activity [47]: Active
IC50 [49]: 1000 nM
IC50 [54]: 750 nM
SMILES: CCCCCCCCCCn1cc(-c2ccc(-c3cc(-c4ccccn4)nc(-c4ccccn4)c3)cc2)nn1
Activity [2]: 69.9%
Activity [3]: 8.95%
Activity [4]: 15.3%
Activity [5]: Active
Activity [6]: 4.9%
Activity [7]: Active
IC50 [8]: 20.8 µM
Activity [9]: 79.1%
Activity [10]: 140%
Activity [12]: 47.6%
Activity [13]: Dose-dependent effect
Activity [14]: 8.55%
Activity [15]: Active
Activity [17]: 16.25%
Ratio IC50 [18]: 10
Activity [19]: Active
Activity [20]: 34.3%
Activity [21]: 30.2%
Activity [23]: inactive
Activity [24]: 25.2%
Activity [25]: 66.2%
Activity [26]: Active
Activity [30]: 45.5%
Activity [31]: Active
Activity [32]: 24%
Activity [33]: Active
Activity [34]: 13.7%
Activity [35]: 16.3%
Activity [36]: Active
Activity [38]: Dose-dependent effect
Activity [39]: Active
Activity [41]: Active
Activity [42]: 3.45%
Activity [43]: 57.4%
Activity [44]: 18.2%
Activity [46]: Active
Activity [48]: 6.9%
Activity [50]: 14.3%
Ratio IC50 [51]: 26
Activity [52]: 8.9%
Activity [53]: Active

IC50 [29]: 50 nM
IC50 [37]: 730 nM
IC50 [40]: 410 nM
IC50 [54]: 1060 nM
SMILES: COc1cccc2c1C(=O)c1c(O)c3c(c(O)c1C2=O)C[C@@](O)(C(=O)CO)C[C@@H]3O[C@H]1C[C@H](N)[C@H](O)[C@H](C)O1 [DOXORUBICIN]
Activity [44]: 34.2%
